Test results: ChEMBL document CHEMBL1201862, “PubChem BioAssay data set” (2004)
Structures can show the parent of a compound that is named as a salt.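 Briefly, cells in 96-well plates were exposed to five compound concentrations for 48 h, and endpoints were estimated by linear interpolation. Abbreviation: GI50, concentration required for 50% inhibition of growth.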 The source made the active and inactive calls. Cut-off read from the data, not from the text of the source: active = GI50 up to about 1.1 µM and inactive = higher.

Experiments:
Assay in all cases: NCI-60 cell line screen, 48 h
[1] = system: CCRF-CEM
[2] = system: RPMI-8226
[3] = system: EKVX
[4] = system: Malme-3M
[5] = system: LOX IMVI
[6] = system: SNB-19
[7] = system: RXF 393
[8] = system: DU-145
[9] = system: OVCAR-3
[10] = system: OVCAR-4
[11] = system: SK-MEL-28
[12] = system: K562
[13] = system: SF-295
[14] = system: BT-549
[15] = system: HCT-116
[16] = system: M14
[17] = system: HCT-15
[18] = system: SF-539
[19] = system: MDA-N

SMILES | GI50 [1] | GI50 [2] | GI50 [3] | GI50 [4] | GI50 [5] | GI50 [6] | GI50 [7] | GI50 [8] | GI50 [9] | GI50 [10] | GI50 [11] | GI50 [12] | GI50 [13] | GI50 [14] | GI50 [15] | GI50 [16] | GI50 [17] [µM] | GI50 [18] | GI50 [19]
CN(C)C(=O)C(F)(F)C(c1ccccc1Br)C1C(=O)N(C)C(=O)N(C)C1=O (stereo not drawn) | > 100 µM (inactive) | > 100 µM (inactive) | > 100 µM (inactive) | > 100 µM (inactive) | > 100 µM (inactive) | > 100 µM (inactive) | > 100 µM (inactive) | > 100 µM (inactive) | > 100 µM (inactive) | > 100 µM (inactive) | > 100 µM (inactive) | > 100 µM (inactive) | > 100 µM (inactive) | > 100 µM (inactive) | > 100 µM (inactive) | > 100 µM (inactive) | > 100 |  | 
O=C(ON=c1c2ccccc2ccc2ccccc12)c1ccccc1 | 18.8 µM (inactive) | 24.4 µM (inactive) | 35.7 µM (inactive) | 22.9 µM (inactive) | 18.4 µM (inactive) | 26.1 µM (inactive) | 17.9 µM (inactive) | 42.2 µM (inactive) | 23.5 µM (inactive) | 28 µM (inactive) | 29.8 µM (inactive) | 8.81 µM (inactive) | 35.7 µM (inactive) | 31.6 µM (inactive) | 13.9 µM (inactive) | 18.1 µM (inactive) | 29.7 | 15.5 µM (inactive) | 
C=CCOC(=O)CC[N+]1=CCC(c2ccccc2)(c2ccccc2)O1 |  |  | > 100 µM (inactive) |  |  | > 100 µM (inactive) | > 100 µM (inactive) | > 100 µM (inactive) | > 100 µM (inactive) | > 100 µM (inactive) | > 100 µM (inactive) | > 100 µM (inactive) | > 100 µM (inactive) | > 100 µM (inactive) | > 100 µM (inactive) | > 100 µM (inactive) | > 100 | > 100 µM (inactive) | > 100 µM (inactive)
CC(C)(C)C(=O)OC(N)/C=C/c1ccccc1 (stereo not drawn) | > 100 µM (inactive) | > 100 µM (inactive) | > 100 µM (inactive) | > 100 µM (inactive) |  |  | > 100 µM (inactive) |  | > 100 µM (inactive) | > 100 µM (inactive) | > 100 µM (inactive) |  | > 100 µM (inactive) | > 100 µM (inactive) | > 100 µM (inactive) | > 100 µM (inactive) | > 100 | > 100 µM (inactive) | > 100 µM (inactive)
Cc1ccc(/C=C/C(=O)Oc2ccc(/C=C3\CCC/C(=C\c4ccc(OC(=O)/C=C/c5ccc(C)cc5)cc4)C3=O)cc2)cc1 | 60.8 µM (inactive) | > 100 µM (inactive) | > 100 µM (inactive) |  | > 100 µM (inactive) | 56.8 µM (inactive) |  | > 100 µM (inactive) | > 100 µM (inactive) | > 100 µM (inactive) | > 100 µM (inactive) |  | 25.1 µM (inactive) | > 100 µM (inactive) | > 100 µM (inactive) | > 100 µM (inactive) | > 100 | 21.3 µM (inactive) | > 100 µM (inactive)
CCOC(=O)CCCSCCCC(=O)CCCSCCCC(=O)OCC | > 100 µM (inactive) |  | > 100 µM (inactive) |  | > 100 µM (inactive) | > 100 µM (inactive) |  | > 100 µM (inactive) | > 100 µM (inactive) | > 100 µM (inactive) | > 100 µM (inactive) | > 100 µM (inactive) | > 100 µM (inactive) | > 100 µM (inactive) | > 100 µM (inactive) | > 100 µM (inactive) | > 100 | > 100 µM (inactive) | > 100 µM (inactive)
Cc1cnc(-n2c(C)nc3cc(Cl)ccc3c2=O)s1 | 31.5 µM (inactive) |  | 11.1 µM (inactive) | 67.9 µM (inactive) | 41.6 µM (inactive) | 35.1 µM (inactive) |  | 25.6 µM (inactive) | 45.6 µM (inactive) | 58.5 µM (inactive) | 49.7 µM (inactive) | 31.1 µM (inactive) | 37.1 µM (inactive) | 28.4 µM (inactive) | 22 µM (inactive) | 31.6 µM (inactive) | 26.2 | 20.7 µM (inactive) | 13 µM (inactive)
CC(C)C(C/C=C1/CC(CO)(COC(=O)CC(C(C)C)C(C)C)OC1=O)C(C)C (stereo not drawn) | 2.74 µM (inactive) |  | 1.79 µM (inactive) | 10.7 µM (inactive) | 5.27 µM (inactive) | 12.5 µM (inactive) | 11.1 µM (inactive) | 13.2 µM (inactive) | 13.8 µM (inactive) | 17.3 µM (inactive) | 14.2 µM (inactive) | 0.389 µM (active) | 0.259 µM (active) | 15 µM (inactive) | 16.2 µM (inactive) | 12.5 µM (inactive) | 15.6 | 11.2 µM (inactive) | 11.5 µM (inactive)
C=C1C[C@@H]2CC[C@@]34C[C@H]5O[C@H]6[C@@H](O3)[C@H]3O[C@H](CC[C@@H]3O[C@H]6[C@H]5O4)CC(=O)C[C@@H]3[C@@H](OC)[C@@H](C[C@H](O)CN)O[C@H]3C[C@H]3O[C@@H](CC[C@@H]1O2)C[C@@H](C)C3=C [ERIBULIN MESYLATE] |  | 0.000516 µM (active) | 0.007 µM (active) | 0.00366 µM (active) | 0.0014 µM (active) |  |  | 0.00118 µM (active) | 9.59e-05 µM (active) | 0.00319 µM (active) | 0.00361 µM (active) | 0.000916 µM (active) | 0.0065 µM (active) | 0.00703 µM (active) | 0.00074 µM (active) | 0.00309 µM (active) | 0.053 | 0.000465 µM (active) | 7.59e-05 µM (active)
